Test results reported in patent US20140249167A1, “Administration of NEDD8-Activating Enzyme Inhibitor” (priority 2010, published 2014).
Entries after “also recorded” stand apart in the source; their conditions may differ.

Columns and labels:
Type in all cases: in vivo
[1] = test system: adults with advanced nonhematologic malignancies (solid tumors); assay: Study C15001, phase 1, four 21-day dose schedules; conditions: for Findings: Prolonged stable disease in (tumor, cycles): as of Oct. 16, 2011; for DLTs occurred (Grade 3 LFTs): in vivo
Method: Study C15001 is a first-in-human, phase 1 study in adults with advanced nonhematologic malignancies testing the tolerability of four 21-day dose schedules, including the following: Schedule A: QD×5; Schedule B: Days 1, 3, and 5 given with dexamethasone; and Schedule C: Days 1, 3, and 5 given without dexamethasone. Dose escalation is based on an adaptive approach using the continual reassessment method (CRM).
Schedule A (QD×5) testing started with 25 mg/m^2 and proceeded through 83 mg/m^2. Increases in liver function tests (LFTs) (AST, ALT, ALP and bilirubin) occurred during Cycle 1 following both single and multiple MLN4924 doses. LFT increases were dose limiting at doses exceeding 50 mg/m^2. Grade 3 and 4 LFT elevations occurred in 2 patients, who both died during the first week of study treatment. One death occurred in a patient with widely metastatic breast cancer receiving 61 mg/m^2, and the second occurred in a patient with advanced colon cancer receiving 83 mg/m^2. In both cases, the investigators assessed the hepatic toxicity as possibly related to MLN4924. As a result of these deaths and their association with increases in transaminase and bilirubin, all ongoing MLN4924 studies were amended to require that bilirubin levels be normal (<ULN) and that ALT and AST levels correspond with […] Grade 1 intensity before administering initial and all subsequent doses of MLN4924. LFTs are checked prior to administration of every dose.
The MTD for Study C15001 Schedule A was determined to be 50 mg/m^2 QD×5. […] Three DLTs have occurred on Schedule B (Grade 3 LFTs), and 2 DLTs have occurred on Schedule C (Grade 3 LFTs). The MTD for these dosing schedules was determined to be 50 mg/m^2 and 67 mg/m^2, respectively. […]
Study C15001 is a phase 1 study in adults with advanced nonhematologic malignancies testing the tolerability of four 21-day dose schedules, including one intermittent dosing schedule, Schedule D, on which doses are administered on Days 1, 8, and 15 as a 3-hour infusion. As of Oct. […] Patients have been enrolled to the following dose levels: 147 mg/m^2 and 196 mg/m^2. Testing continues, and dose escalation is based on an adaptive approach using the continual reassessment method (CRM). […]

[2] = test system: adults with metastatic melanoma; assay: Study C15005, phase 1 dose-escalation study
Method: As used herein, “dose-limiting toxicity” (DLT) is defined as any of the following events that are considered by the administering physician to be related to therapy with MLN4924: • Grade 4 neutropenia (ANC<500 cells/mm^3) lasting more than 7 consecutive days • Grade 3 neutropenia with fever and/or infection, where fever is defined as an oral temperature[…] • Grade 4 thrombocytopenia (platelets<25,000/mm^3 but >10,000/mm^3) lasting more than 7 consecutive days • Grade 3 thrombocytopenia with bleeding • A platelet count<10,000/mm^3 at any time • Grade 3 or greater nausea and/or emesis despite the use of optimal anti-emetic prophylaxis (wherein “optimal anti-emetic prophylaxis” is defined as an anti-emetic regimen that employs a 5-HT3 antagonist given in standard doses and according to standard schedules). […]
Study C15005 is a phase 1, dose-escalation study in adults with metastatic melanoma testing MLN4924 dosing on Days 1, 4, 8, and 11 (Schedule A) or Days 1, 8 and 15 (Schedule B) repeated every 21 days. […] Patients were enrolled to dose levels of 50 mg/m^2, 67 mg/m^2, 89 mg/m^2, 118 mg/m^2, 157 mg/m^2, 209 mg/m^2 and 278 mg/m^2 before the MTD was determined to be 209 mg/m^2. […]
(§1) Although DLTs can occur at any point during treatment, only DLTs occurring during Cycle 1 of treatment will necessarily influence decisions regarding dose escalation, expansion of a dose level, or evaluation of intermediate dose levels. Patients are monitored through all cycles of therapy for treatment-related toxicities.

[3] = test system: adults with acute myelogenous leukemia and myelodysplastic syndrome; assay: Study C15003, phase 1, 3 dose schedules on a 21-day cycle
[4] = test system: adults with lymphoma or multiple myeloma; assay: Study C15002, phase 1, 3 dose schedules on a 21-day cycle
Excerpt: Study C15002 is a phase 1 study in adults with lymphoma or multiple myeloma testing 3 dose schedules, each repeated on a 21-day cycle. One such schedule is Schedule A: Days 1, 2, 8, and 9.
As used herein, “dose-limiting toxicity” (DLT) is defined as any of the following events that are considered by the administering physician to be related to therapy with MLN4924: • Grade 4 neutropenia (ANC<500 cells/mm^3) lasting more than 7 consecutive days • Grade 3 neutropenia with fever and/or infection, where fever is defined as an oral temperature[…] • Grade 4 thrombocytopenia (platelets<25,000/mm^3 but >10,000/mm^3) lasting more than 7 consecutive days • Grade 3 thrombocytopenia with bleeding • A platelet count<10,000/mm^3 at any time • Grade 3 or greater nausea and/or emesis despite the use of optimal anti-emetic prophylaxis (wherein “optimal anti-emetic prophylaxis” is defined as an anti-emetic regimen that employs a 5-HT3 antagonist given in standard doses and according to standard schedules). Dexamethasone should not be used because of its CYP3A-inducing effects. • Grade 3 or greater diarrhea that occurs despite maximal supportive therapy • An absolute reduction in LVEF of ≧10% to a value<50% (e.g., LVEF=45% in a patient with LVEF=55% at baseline) • A decrease in LVEF to <40% • An increase in PASP to >50 mm Hg or 3× baseline • Any other Grade 3 or greater nonhematologic toxicity with the following exceptions: • Grade 3 arthralgia/myalgia • Brief (<1 week) Grade 3 fatigue • Grade 3 fever that occurs in the absence of Grade 3 or worse neutropenia or documented infection following daily administration of MLN4924 • Treatment delay of more than 1 week because of a lack of adequate recovery of MLN4924-related hematological or nonhematologic toxicities • MLN4924-related toxicity that requires that any doses of MLN4924 are missed during a cycle or discontinuation of therapy with MLN4924
Study C15002 is a phase 1 study in adults with lymphoma or multiple myeloma testing 3 dose schedules, each repeated on a 21-day cycle. Two such schedules are intermittent dosing schedules, Schedule B: Days 1, 4, 8, and 11; and Schedule C: Days 1 and 8. As of Oct. […] Patients on Schedule B were enrolled to dose levels of 110 mg/m^2, 147 mg/m^2, 196 mg/m^2 and 261 mg/m^2 before the MTD was determined to be 196 mg/m^2. […]
as §1

[5] = Schedule B: Days 1, 4, 8, 11, at 147 mg/m^2

## NS(=O)(=O)OC[C@@H]1C[C@@H](n2ccc3c(N[C@H]4CCc5ccccc54)ncnc32)C[C@@H]1O [MLN4924, ((1S,2S,4R)-4-(4-((1S)-2,3-dihydro-1H-inden-1-ylamino)-7H-pyrrolo[2,3-d]-pyrimidin-7-yl)-2-hydroxycyclopentyl)methyl sulfamate]
[1]; Schedule A (QD×5), Cycle 1, AST, ALT, ALP and bilirubin
  Doses at which LFT increases were dose limiting: exceeding 50 mg/m^2
[1]; Schedule A, one at 61 mg/m^2, one at 83 mg/m^2
  Grade 3 and 4 LFT elevations, patients who both died during first week of treatment: 2 patients
[1]; Schedule D: Days 1, 8, 15, 3-hr infusion, 21-day cycle, solid tumors
  Dose, MTD not reached (→): ≥ 196 mg/m^2
[1]; Schedule D: Days 1, 8, 15, 3-hr infusion
  Findings: Prolonged stable disease in (tumor, cycles): Colon cancer (6+ cycles); also recorded: NSCLC^5 (5+ cycles)
[1]; Schedules A, B, C (findings cell spans the three schedules)
  Findings: Prolonged stable disease in (tumor, cycles): Melanoma (7, 7, 10 cycles); also recorded: SCLC^5 (7 cycles),; also recorded: CRC^5 (5, 5, 9 cycles),; also recorded: Breast (5, 7 cycles); also recorded: Head and Neck (7 cycles)
[1]; human, 21 days
  DLTs occurred (Grade 3 LFTs): 2
[1]
  DLTs occurred (Grade 3 LFTs): Three DLTs
[2]; Schedule A: Days 1, 4, 8, 11
  Findings: Prolonged stable disease in (tumor, cycles): Melanoma (5, 6, 6, 6, 10, 12 cycles)
[2]; Schedule B: Days 1, 8, 15
  Findings: Prolonged stable disease in (tumor, cycles): Melanoma (11+ cycles)
[2]; in vivo
  Number of DLTs: two DLTs have occurred
[3]; Schedule A: Days 1, 3, 5, at 78 mg/m^2
  DLTs: Two DLTs occurred at 78 mg/m^2 (multi-organ failure and reversible elevation of ALT)
[3]; [5]
  Kind of DLTs: lactic acidosis and hypotension, GI necrosis, and acute renal failure
  Number of DLTs: Four DLTs in three patients
[3]; Schedule B: Days 1, 4, 8, 11 of 21-day cycle, AML, MDS
  MTD (maximum tolerated dose): 83 mg/m^2
[4]; Schedule A: Days 1, 2, 8, 9, Hodgkin's Lymphoma (7 cycles)
  Findings: Partial remission in Hodgkin's
[4]; Schedule A, 110 mg/m^2 expansion cohort
  Adverse event in one patient (did not contribute to definition of MTD): Grade 3 AST and ALT elevation
[4]; Schedule B: Days 1, 4, 8, 11, as of Oct. 7, 2011
  DLTs observed: no DLTs have been observed
[4]; Schedule C: Days 1 and 8, at 196 mg/m^2
  DLTs: One DLT occurred on Schedule C at 196 mg/m^2 (reversible Grade 3 renal failure)
